Results published in patent US20070197643A1, “USE OF (Z)-2-CYANO-3-HYDROXY-BUT-2-ENOIC ACID-(4'-TRIFLUOROMETHYLPHENYL)-AMIDE FOR TREATING INFLAMMATORY BOWEL DISEASE” (AVENTIS PHARMACEUTICALS INC., priority 2004, published 2007).

What was measured:
[1] = molecular target: dihydrooate dehydrogenase (Homo sapiens, UniProt Q02127); conditions: enzyme essential for the synthesis of pyrimidines; cited from earlier work
[2] = system: immune cells and cell lines; conditions: wide variety of immune cells and cell lines; cited from earlier work
[3] = system: inflammation; conditions: animal models of inflammation; cited from earlier work
[4] = system: multiple sclerosis; conditions: in vivo; cited from earlier work
[5] = amount entering the intestinal lumen after administration; assay type: in vivo; conditions: following administration of teriflunomide
[6] = system: Crohn's disease; conditions: small number of patients with azathioprine intolerance; cited from earlier work

dihydrooate dehydrogenase, sequence (Q02127 whole entry): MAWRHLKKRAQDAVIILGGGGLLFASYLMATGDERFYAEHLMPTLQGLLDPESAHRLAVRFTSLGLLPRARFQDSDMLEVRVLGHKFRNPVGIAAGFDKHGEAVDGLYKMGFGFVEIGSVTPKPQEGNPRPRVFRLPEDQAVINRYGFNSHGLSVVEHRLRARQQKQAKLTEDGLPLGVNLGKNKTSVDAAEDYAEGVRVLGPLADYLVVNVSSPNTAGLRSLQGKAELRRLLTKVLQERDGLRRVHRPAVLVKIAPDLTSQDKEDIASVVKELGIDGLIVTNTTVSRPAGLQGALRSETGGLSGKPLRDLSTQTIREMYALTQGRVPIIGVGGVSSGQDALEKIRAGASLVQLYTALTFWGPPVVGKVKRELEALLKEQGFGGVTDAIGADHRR

Structure (SMILES)	inhibition of dihydrooate dehydrogenase [1]	antiproliferative effects [2]	anti-inflammatory activity [3]	efficacy in preclinical models of multiple sclerosis [4]	amount of teriflunomide entering the intestinal lumen [5]	treatment of Crohn's disease [6]
C/C(O)=C(\C#N)C(=O)Nc1ccc(C(F)(F)F)cc1 [Teriflunomide, (Z)-2-cyano-3-hydroxy-but-2-enoic acid-(4′-trifluoromethylphenyl)-amide]	inhibits	antiproliferative effects	anti-inflammatory activity	demonstrated efficacy	high amounts	
Cc1oncc1C(=O)Nc1ccc(C(F)(F)F)cc1 [leflunomide, 5-methylisoxazole-4-carboxylic-(4-trifluoromethyl)-anilide]						successful use
